The test system of this test is CEM cells HIV-1 protection, formazan growth assay. The test can be described thus: NCI AIDS Antiviral Assay. The conditions noted are these: for IC50: measured here: growth of uninfected CEM cells. The procedure, abridged: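 CEM (human) cells, HIV-1 infected vs uninfected, 5-point dosing, formazan growth read-out. Retest threshold 50% protection.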

SMILES strings stand for the structures. Several values for one entry are separate records, joined by “and”; a condition that tells them apart may be missing. Equal values may be shown once. Activity calls are given as the source filed them.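 The calls were made as follows: active = compounds giving half or more protection of infected cells from virus-caused growth loss, again on retest; inactive = the rest.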 Where a SMILES comes first, the peptide text is derived from it. The star is where a group is joined. Boc = CC(C)(C)OC(=O)*; OBn = c1ccc(CO*)cc1 Where only a bound is given, the exact number is not on record here.

As for `NCCNCCCNC(=O)c1cc(-c2ccccc2)nc2ccccc12`, the EC50 was above 200 µM and the half-inhibitory concentration (IC50) was determined as 53.7 µM.
With `CC(C)CC(NC(=O)OC(C)(C)C)C(=O)NC(CC(=O)OCc1ccccc1)C(=O)OCc1ccccc1` (stereo not drawn) (Boc-Leu-Asp(OBn)-OBn; configuration not given here), the EC50 is above 200 µM and the IC50 was determined as 33.1 µM.
For `Nc1c(CCc2ccccn2)ccc2ccccc12` the same measures were above 200 µM and 166 µM.
On to `CC(C)=CCC[C@@H](C)C1=C(N)C(O)=C(C)C(=O)C1=O`, for which the EC50 is above 200 µM and the half-inhibitory concentration (IC50) was determined as 13.5 µM.
As for `CCN(CC)CCCNCc1cc(Cl)c2cccnc2c1O`, the EC50 is above 200 µM and the IC50 stood at 9.77 µM.
Consider `Cc1ccc(S(=O)(=O)OC2C3CCC4C(COC42)C3)cc1` (stereo not given), for which the EC50 was 79.4 µM and 77.6 µM; the concentration for half-maximal inhibition (IC50) is above 200 µM.
`CNC(=O)c1cn(C2OC(CO)C(O)C2O)c2ncnc(N)c12` (stereo not given): the EC50 is above 2 µM and the IC50 turned out to be 1.2 µM.
For the molecule `COc1ccc(NC(=O)CC(=O)NNC(Sc2ccccc2)c2cc(N=Nc3ccc(Br)cc3)ccc2O)cc1` (stereo not given), the outcome was inactive.
With `COc1ccc2nc3cccc([N+](=O)[O-])c3c(NCCC(=O)O)c2c1`, the EC50 was above 200 µM and the IC50 stood at 4.57 µM.
As for `COc1cccc(C2=NC(C(C)(C)C)CO2)c1-c1ccccc1C1OCCO1` (stereo not given), the EC50 was above 339 µM and the IC50 was above 339 µM.
With `Nc1nc(Cl)c(N)c(NCC2(CO)CC(Cc3ccccc3)C2)n1` (stereo not given), the EC50 was above 200 µM and the IC50 was found to be 19.5 µM.
For `Cc1cnc2sn(-c3ccc(Br)cc3)c(=O)c2c1` the same measures were above 200 µM and 11.5 µM.
As to `COc1ccc(NC/C=C/C(=C/COC(C)=O)OC(C)=O)cc1`, the EC50 is above 200 µM and the IC50 was 3.16 µM.
For `CCCCCCOCC(=O)O` the same measures were above 200 µM and above 200 µM.
For `CCCCC(CCCCCC(CCCC)C1NC(C)Cc2cc(OC)c(OC)cc21)C1NC(C)Cc2cc(OC)c(OC)cc21` (stereo not given) the same measures were above 200 µM and 0.447 µM.
For `O=[C]=[Fe+].O=[C]=[Fe].[C-]1=CCC=C1.[CH-]=O.[CH-]=O.c1cc[cH-]c1` the same measures were above 200 µM and 21.4 µM.
With `O=C(NO)Nc1ccc(Cl)c(Cl)c1`, the result was inactive and the IC50 was 56.2 µM.
`COP(=O)(OC)/C(C#N)=C/c1ccoc1`: the EC50 is above 1100 µM and the IC50 is above 1100 µM.
Turning to `Cn1c(N)c(N)c(=O)[nH]c1=O`, the EC50 was above 200 µM and the IC50 came out at 162 µM.
Take `Cn1c2c(c3ccccc31)C1CCCCCCC1C1C(=O)OC(=O)C21` (stereo not given): the outcome was inactive.
In the case of `CC1=N/C(=C\c2ccccc2)C(=O)O1`, the EC50 is above 20 µM and the IC50 is above 20 µM.
As for `COc1ccc(OC)c2c1C=CC(Br)=CC2`, the EC50 was above 200 µM and the IC50 amounted to 53.7 µM.
For `CCOC(=O)C[C@@H]1C2(C=C[C@@]13CO3)OCC(C)(C)CO2` the same measures were above 200 µM and 129 µM.
Take `O=C1c2ccccc2C(=O)C1(Br)C(Cl)c1ccccc1` (stereo not given): the EC50 is above 200 µM and the half-maximal inhibitory concentration (IC50) was determined as 3.55 µM.
For `NCCCS(=O)(=O)O` the same measures were above 200 µM and above 200 µM.
Turning to `CN1Cc2cc3cc4c(cc3nc2N(C)C1)OCCO4`, the EC50 was above 200 µM and the IC50 is 162 µM.
For `O=S(=O)(c1ccccc1)C(Cl)c1cccc(Cl)c1` (stereo not given) the same measures were above 63.1 µM and above 63.1 µM.
Turning to `COc1ccc(OC)c(-c2cc(=O)c3c(OC)c(OC)c(OC)c(OC)c3o2)c1`, the EC50 is above 200 µM and the IC50 is 29.5 µM.
Regarding `COc1cc2cccc(N)c2cc1OC`, the EC50 is above 200 µM and the concentration for half-maximal inhibition (IC50) was above 200 µM.
With `CN1CCN(C(=S)N(C(=O)c2ccco2)c2ccccc2)CC1`, the EC50 was above 759 µM and the IC50 is above 759 µM.
In the case of `c1ccc([P+](CC[P+](c2ccccc2)(c2ccccc2)c2ccccc2)(c2ccccc2)c2ccccc2)cc1`, the EC50 is above 200 µM and the half-inhibitory concentration (IC50) turned out to be 6.17 µM.
Take `CCCCCC1=CC2C(=O)NC(=O)NC12` (stereo not given): the EC50 is above 47.9 µM and the 50% inhibitory concentration (IC50) was above 47.9 µM.
On to `O=[N+]([O-])c1ccc(S(=O)(=O)NN=C2CCCCC2)cc1`, for which the EC50 is above 316 µM and the IC50 came to 178 µM.
For `Cc1ccc(NC(=O)CC/C(CC(=O)C(C)(C)C)=N\Nc2ccc([N+](=O)[O-])cc2[N+](=O)[O-])cc1C` the same measures were above 14.8 µM and above 14.8 µM.
For `COc1ccc(N2CCN(c3ccc4c(c3)NCC(=O)N4)CC2)cc1` the same measures were above 200 µM and 45.7 µM.
Turning to `O=c1c(Cl)c(Cl)cnn1CCCl`, the EC50 is above 1100 µM and the concentration for half-maximal inhibition (IC50) was 1.29 µM.
For `CCCCCCCCCCCCOP(=O)(O)OCC(N)C(=O)O` (stereo not given) the same measures were above 200 µM and 10.2 µM.
For `CCOC(=O)[C@H]1Nc2ccc(Cl)cc2[C@H]2CCC[C@@H]12` the same measures were above 67.6 µM and above 67.6 µM.
As for `C=CCC1C2CCC(O[Si](C(C)C)(C(C)C)C(C)C)(C(C(=O)OC)C2)C1O` (stereo not given), the EC50 was above 200 µM and the IC50 is 91.2 µM.
As for `OC(c1ccccc1)C1CC2C=CC1C2` (stereo not given), the outcome was inactive.
With `NC(CSSCC(N)=NC1CCCCC1)=NC1CCCCC1`, the EC50 is above 200 µM and the IC50 worked out at 95.5 µM.
For `S=c1[nH]ccs1` the same measures were above 200 µM and above 200 µM.
Turning to `NC(CS)=NCC1C2CC3CC(C2)CC1C3` (stereo not given), the EC50 was above 200 µM and the half-maximal inhibitory concentration (IC50) stood at 33.1 µM.
For `Cc1ccc(/C=N/Nc2ccccn2)s1` the same measures were above 200 µM and above 200 µM.
In the case of `O=[N+]([O-])c1ccc(-c2ccc(-c3csc(Nc4ccccn4)n3)o2)cc1`, the EC50 was above 5.5 µM and the half-inhibitory concentration (IC50) is above 5.5 µM.
Regarding `CCOc1ccc(NC(=O)/C(CC(=O)c2sc(Nc3ccc(C)cc3)nc2C)=N\NC(N)=S)cc1`, the EC50 is above 200 µM and the IC50 is above 200 µM.
Regarding `Nc1c(N=Nc2ccc([N+](=O)[O-])cc2)c(S(=O)(=O)O)cc2cc(S(=O)(=O)O)c(N=Nc3ccccc3)c(O)c12`, the EC50 was above 151 µM and the half-inhibitory concentration (IC50) is above 151 µM.
With `CCOC(=O)CNc1c(OCc2ccccc2)c(=O)c1=O`, the EC50 was above 200 µM and the half-inhibitory concentration (IC50) is above 200 µM.
In the case of `Cc1ccc(SSCC(O)C(O)CSSc2ccc(C)cc2)cc1` (stereo not given), the result was inactive.
With `Cc1cc2oc(=O)[nH]c(=S)c2c(C)c1C`, the EC50 is above 17 µM and the IC50 was above 17 µM.
With `CC1=N/C(=C\c2ccc(N)cc2)C(=O)N1Nc1nnc(NN2C(=O)/C(=C/c3ccc(N)cc3)N=C2C)c2ccccc12`, the outcome was inactive.
Regarding `COc1ccc(C23OC2Oc2cc(OC4CCCCO4)ccc2C3=O)cc1` (stereo not given), the EC50 is above 70.8 µM and the concentration for half-maximal inhibition (IC50) was determined as 45.7 µM.
With `COc1ccc2c(c1)c[n+](C)c1c3cc(OC)c(OC)cc3ccc21`, the EC50 is above 151 µM; the half-inhibitory concentration (IC50) was 1.32 µM and 1.45 µM and 1.35 µM.
For the molecule `CC(Cc1cccc2c1Nc1ccccc1S2)N(C)CCO` (stereo not given), the EC50 was above 200 µM and the IC50 came out at 33.9 µM.
For `Cc1cc(-c2ccccn2)oc(=O)c1NC(=O)c1ccccc1` the same measures were above 200 µM and 30.2 µM.
For `COc1ccc(/C=C(/C(=O)O)c2ccccc2)cc1` the same measures were above 708 µM and 288 µM.
Regarding `C=CCOC(C)n1c(C)cc(=O)n(C(C)OCC=C)c1=O` (stereo not given), the EC50 is above 200 µM and the IC50 is above 200 µM.
`COc1csc([C@H]2CCC3[C@@H]4CC=C5C[C@@H](OC(C)=O)CC[C@]5(C)C4CC[C@@]32C)n1` (stereo not given in full): the EC50 was above 57.5 µM and the IC50 was above 57.5 µM.
For `CC1(C)CN=C(Nc2cccc(C(F)(F)F)c2)S1`, the EC50 was above 200 µM and the half-inhibitory concentration (IC50) is 41.7 µM.
For `COCN1C(=N)C(C(=O)OC(C)(C)C)=C2C=C(O)C=CC21C` (stereo not given), the EC50 is above 200 µM and the half-inhibitory concentration (IC50) amounted to 1.45 µM.
On to `CCOC(=O)COc1ccc(/C=C/C(=O)c2ccc(OC)cc2)cc1`, for which the EC50 is above 200 µM and the IC50 came to 11.2 µM.
Turning to `CN(C)CCc1ccc(Cl)cc1Cl`, the EC50 was above 977 µM and the IC50 is 407 µM.
For `CC1=NC(=Cc2ccc([N+](=O)[O-])cc2)C(=O)N1n1c(-c2ccccc2)nc2ccccc2c1=O` the same measures were above 200 µM and 34.7 µM.
For the molecule `[pH]1p2[pH]p3p1p3[pH]2.c1cc[c]([Ge]([c]2ccccc2)[c]2ccccc2)cc1.c1cc[c]([Ge]([c]2ccccc2)[c]2ccccc2)cc1.c1cc[c]([Ge]([c]2ccccc2)[c]2ccccc2)cc1`, the result was inactive.
Take `CCOC(=O)COC(=O)c1cc(C(=CCC[C@H]2CC[C@@]3(C)[C@@H](CC[C@@H]4[C@@H]3CC[C@]3(C)[C@@H](C(C)CCCC(C)C)CC[C@@H]43)C2)c2cc(Cl)c(OCC(=O)OCC)c(C(=O)OCC(=O)OCC)c2)cc(Cl)c1OCC(=O)OCC` (stereo not given in full): the EC50 is above 200 µM and the IC50 was above 200 µM.
As to `O=[N+]([O-])/C(C(Cl)=C(Cl)Cl)=C(/Nc1ccccc1)Sc1ccccc1`, the EC50 was above 200 µM and the IC50 is 23.4 µM.
For `O[C@]12C=C[C@H](CCCC1)O2` the same measures were above 200 µM and 50.1 µM.
For `CC1=NN(C(=O)CC(=O)Nc2ccc(C)cc2)C(=O)C1N=Nc1ccc(S(=O)(=O)c2ccc(N=NC3C(=O)N(C(=O)CC(=O)Nc4ccc(C)cc4)N=C3C)cc2)cc1` (stereo not given) the same measures were above 50.1 µM and above 50.1 µM.
`C=CCc1cc(-c2cc(CC=C)c(O)c(CN(CC)CC)c2)cc(CN(CC)CC)c1O`: the EC50 was above 200 µM and the half-maximal inhibitory concentration (IC50) came out at 93.3 µM.
For `CC(C)CCCC(C)[C@H]1CC[C@@H]2[C@H]3CC[C@H]4C[C@@H](CCC=C(c5cc(Cl)c(OCc6ccc(C(=O)O)cc6)c(C(=O)O)c5)c5cc(Cl)c(OCc6ccc(C(=O)O)cc6)c(C(=O)O)c5)CC[C@]4(C)[C@@H]3CC[C@]12C` (stereo not given in full) the same measures were 4.17 µM and 112 µM.
`Cc1c2ccnc(C#N)c2c(C)c2c1[nH]c1ccccc12`: the result was inactive.

The values above are taken from PubChem BioAssay AID179 (DTP/NCI, 2004).
